The text below walks through data of US10105425B2, “Isolated donor MHC-derived peptide and uses thereof” (INSERM (INSTITUT NATIONAL DE LA SANTÉ ET DE LA RECHERCHE …, priority 2014, dated 2018).

The subject of assay [1] is CD8^+CD40Ig Tregs and pDCs. The assay is described as follows: Cytokine ELISA in coculture supernatants after peptide stimulation. In kind it is cell-based, rat. As to conditions: 6 days peptide stimulation with pDCs, supernatant. The procedure:
(§1) For MLR coculture assays, pDCs from LEW.1A naive rats (1.25×10^4 cells), syngeneic CD8^+CD40Ig Tregs (5×10^4 cells) and 120 μg/ml of allogeneic peptides were plated in triplicate in 200 μl of complete RPMI-1640 medium in round-bottom 96 wells plates for 6 days at 37° C., 5% CO2. pDCs were matured with 0.5 μM of CpG ODN 1826.
IFNγ, IL-10 were measured in coculture supernatants using ELISA from BD Biosciences OptEIA, IL-12 and TGFβ using ELISA from Invitrogen and R&D System respectively.
For orientation: In an ELISA, binding on a coated surface is turned into a signal by an enzyme label.

In assay [2] the test system is heart allograft in irradiated LEW.1A recipients. The assay is described as follows: Adoptive transfer of splenocytes from Du51-treated long-surviving recipients.
Excerpt: Total splenocytes (1.5·10^8 cells) were adoptively transferred i.v. the day before heart transplantation into naive LEW-1A recipients that had received 4.5 Gy of whole-body irradiation the same day. Recipients received splenocytes from Du51-treated rats (defined as 1st spl-transferred) or from naive rats (naive spl-transferred) or no cells (untreated irradiated).
The next assay concerns CD8^+CD45RC^low Tregs. The assay is described as follows: Spleen cell populations by flow cytometry after peptide treatment. In kind it is in vivo, rat. As to conditions: long-term surviving Du51-treated recipients. The protocol:
(§2) All biotinylated mAbs were visualized using Streptavidin-PerCP.Cy5.5 (BD Biosciences). A FACSCanto II cytofluorimeter (BD Biosciences, Mountain View, Calif.) was used to measure fluorescence, and data were analyzed using FlowJo software (Tree Star, Inc. USA, version 7.6.5). Cells were first gated by their morphology and dead cells excluded by selecting DAPI negative viable cells.
Tetramerization of RT1.A^a/Du51 was performed at room temperature by addition of streptavidin-PE (Jackson ImmunoResearch) or streptavidin-APC (BD Biosciences) at a 4:1-molar ratio, in four equal aliquots added at 15-min intervals. Likewise, the control tetramer RT1.A^a/MTF-E (ILFPSSERLISNR) was conjugated to streptavidin-BV421 (Biolegend) and represented 1.6+/−0.7% of non-specific staining among Du51-specific cells. These three reagents were mixed and added to plated cells at 10 μg/mL for 1 hour at 4° C. Cells were further stained for CD8 and CD45RC and fluorescence was analyzed on a FACSCanto II cytometer (BD Biosciences, Mountain View, Calif.). Cells were first gated by their morphology and dead cells excluded by selecting DAPI negative cells.
(In general: A flow cytometer gives signals particle by particle.)

Assay [3] relates to donor-specific alloantibodies. The assay is described as follows: Donor specific alloantibody detection by cytofluorimetry. In kind it is in vivo, rat. As to conditions: long-term surviving Du51-treated recipients vs untreated or early rejecting. The procedure: Alloantibodies were analyzed by cytofluorimetry as described elsewhere (28). Briefly, after digestion by collagenase D and red blood cell lysis, allogeneic spleen cells were incubated with diluted (1/8) heat-inactivated serum, and then with FITC-conjugated goat anti-rat IgG antibodies (H+L chain specific) (Jackson Laboratories), a mouse anti-rat IgG1 MAb (MCA 194, Serotec), IgG2a (MCA 278, Serotec) or IgG2b (MCA 195, Serotec). […] Cells were analyzed using a FACS Canto II cytofluorimeter (BD Biosciences, Mountain View, Calif.) and the results were expressed as mean channel fluorescence for each serum.

The next assay relates to CD8^+CD40Ig Tregs. The assay can be described thus: MLR coculture: CD25 activation of CD8+CD40Ig Tregs with syngeneic pDCs and allogeneic peptides. In kind it is cell-based, rat. As to conditions: for upregulation of CD25 expression, fold vs. no peptide: 6 days culture, matured syngeneic pDCs, 120 μg/ml peptide. The procedure:
as §1
(§3) Proliferation of CFSE-labeled naive CD4^+CD25^− T cells and phenotype of CD8^+CD45RC^low Tregs were analyzed by flow cytometry on a FACSCanto II cytometer (BD Biosciences, Mountain View, Calif.) after gating on TCR^+CD4^+ cells or TCR^+CD8^+ cells among live cells (DAPI negative).
For extracellular staining, cells were stained with the following mAbs: anti-TCRαβ (R73, Alexa Fluor 647-conjugated), anti-CD8α (OX8, PE-Cy7-conjugated, ebiosciences), anti-CD4 (W3.25, PE-Cy7-conjugated), anti-CD45RC (OX22, FITC-conjugated), anti-CD28 (JJ319, biotin-labeled), anti-CD71 (OX26, biotin-labeled), anti-mouse Vb11 (KT11, biotin-labeled, AbD Serotec) anti-CD25 (OX39, biotin-labeled) and anti-MHC-II (OX6, biotin-labeled).
as §2

The next assay has as its system CD4^+CD25^− T cells. The assay can be described thus: Direct MLR suppressive assay (CFSE proliferation). In kind it is cell-based, rat. The protocol:
For direct MLR suppressive assays, sorted CFSE-labeled CD4^+CD25^− T cells from LEW.1A origin (5×10^4 cells) and allogeneic pDCs isolated from donor LEW.1W animals (1.25×10^4 cells) were plated in triplicate for 6 days in a final volume of 200 μl of completed RPMI-1640 medium in round-bottom 96 wells plates with FACS-sorted freshly purified naive CD8^+CD45RC^low Treg cells, peptide-expanded CD8^+CD40Ig Treg cells (5×10^4 cells), Du51 tetramer^+ or ^− CD8^+CD40Ig Tregs. For indirect MLR suppressive assay, splenocytes isolated from donor LEW.1W animals were frozen-thawed to induce apoptosis. Apoptotic cells were then cultured overnight with pDCs isolated from recipient LEW.1A animals (8:1 ratio) at 0.65×10^6 pDCs/mL. Alloantigens-loaded pDCs were finally washed and plated as described before for the direct MLR.
as §3

Another assay deals with cardiac grafts. The assay can be described thus: Morphometric analysis of cardiac grafts (chronic rejection). Format: in vivo, rat. As to conditions: long-term surviving Du51-treated recipients. The procedure:
The upper third of the graft was fixed in paraformaldehyde and embedded in paraffin. Five μm coronal sections were stained with hematoxylin-eosine-safron. Tissues were analyzed by a pathologist (K.R.) blinded to the groups and chronic rejection was evaluated as previously described (63).

In assay [4] the test system is heart allograft in LEW.1A recipients. The assay is described as follows: Cardiac allotransplantation with in vivo peptide treatment. The arrangement: species or system rat. As to conditions: for allograft survival: five i.v injections of 500 μg peptide, LEW.1W into LEW.1A, n=4. The protocol:
Allotransplantations of heart were performed between whole MHC incompatible LEW.1W (RT1.A^u as donors) and LEW.1A (RT1.A^a as recipients) male rats as previously described (5). The experiments were approved by the regional ethical committee for animal experimentation.
16-mer peptides were dissolved in 0.4% DMSO/PBS before injection. For the first protocol, single doses of peptide (500 μg/injection) were injected i.v at different time points before and after transplantation at day −6, −3, 0 +3 and +7 into grafted LEW.1A recipients. In the second protocol, mini osmotic pumps (ALZET, Cupertino, Calif., USA) were implanted intraperitoneally (i.p) in recipients and delivered continuously either 20.83 or 41.66 μg/hour of 16-mer peptides for 14 days. A first pump was implanted on day −7 before transplantation and was replaced by a second one at day +7, allowing delivery of 14 or 28 mg of peptide per animal for 28 consecutive days. A depleting anti-CD8α mAb (OX8, IgG1, 3 mg/kg) or an anti-MHC class Ia and Ib mAb (OX18, 3 mg/kg) were injected i.p. twice a week from day −7 until rejection. Allografts were monitored daily by palpation and allograft rejection was defined as complete cessation of palpable heart beat.

In assay [5] the test system is CD4^+ and CD8^+ T cells isolated from rejected untreated animals. As to conditions: unmodified LEW.1A recipients, LEW.1W into LEW.1A; cited from earlier work.
Setting [6] is: after 6 days of peptide stimulation.

Regarding “NREEYARFDSDVGEYR (Synthetic Dominant peptide Du51)”, in assay [1], the IFNγ expression entry was “significant increased expression”, the IL-10 expression entry is on record as “no modification”, the IL-12 production entry was “decreased” and the TGFβ expression result is listed as “no modification”. Also, the “recipients with significant prolongation of allograft survival” value in assay [2] (150·10^6 splenocytes from recipients treated with 1 mg/day Du51, irradiated secondary recipients) is 50%. In addition, in [2] (first adoptively transferred long term recipients), the “anatomopathological status of graft” value is “complete absence of vascular lesions and obstructions”. Also, the “total IgG, IgG1 and IgG2b alloantibodies production” value in assay [2] (first adoptively transferred long-term recipients vs untreated) is listed as “total inhibition”. In the assay on CD8^+CD45RC^low Tregs, the “percentage and absolute number of total CD8+ T cells, in particular CD8+CD45RClow Tregs in spleen” value is on record as “trend for an increase”; the “tetramer-positive Du51-specific Tregs in spleen” value is reported as “trend for an increase”. In addition, the “total IgG, IgG1, IgG2a and IgG2b alloantibodies production” value in [3] is recorded as “total inhibition”. Moreover, the “upregulation of CD25 expression, fold vs. no peptide” value (“upregulation … fold vs. no peptide” below) with CD8^+CD40Ig Tregs came to 2.07±0.18 fold. Moreover, in the assay with CD8^+CD40Ig Tregs (setting [6]), the CD28 expression entry is “upregulation”, the CD71 expression result is reported as “upregulation”, the Foxp3 expression result was “no modification” and the “MHC class II expression” value was “upregulation”. In the assay on CD4^+CD25^− T cells (Tregs from Du51-treated recipients), the “ex vivo suppressive activity of peptide-induced CD8+CD45RClow Tregs” value is given as “efficiently inhibit effector CD4^+ T cell proliferation”. Further, the “proliferation of effector T cells with peptide-stimulated Tregs” value with CD4^+CD25^− T cells (Tregs stimulated 6 days with peptide, compared to non-activating peptide) was “significant inhibition”. Besides, the “signs of chronic rejection in graft” value in the assay with cardiac grafts is “no signs of chronic rejection”. For the same sequence, the allograft survival in assay [4] is 9.5 days. In assay [4] (i.p. mini-osmotic pumps 20.8 μg peptide per hour for 28 days from day -7), this sequence came in with an indefinite allograft survival of 25%. Besides, the “indefinite allograft survival, recipients” value in assay [4] (osmotic pump 41.6 μg peptide per hour, LEW.1W donor hearts) was 80%. For the same sequence, the “rejection of Brown Norway (BN) third party grafts, day after transplantation” value in assay [4] (osmotic pump 41.6 μg per hour, BN/LEW.1A) is 7 days. In addition, the “involvement in acute rejection of grafts” value in [5] is recorded as “not involved in acute rejection”.
For the sequence “REEYARFDSDVGEYR (Synthetic 15-mer peptide 51-18)”, the “upregulation … fold vs. no peptide” value in the assay with CD8^+CD40Ig Tregs was determined as 2.04±0.3 fold. Moreover, the “activation / recognition by CD8+CD40Ig Tregs (CD25), in words” value in the assay with CD8^+CD40Ig Tregs (coculture with matured syngeneic pDCs, 6 days) is recorded as “not significantly different from that induced by Du51”.
Consider “YLRYDSDVGEYRAVTE [Bu31, sub-dominant peptide from donor MHC class II RT1.B^u]”, for which the “upregulation … fold vs. no peptide” value with CD8^+CD40Ig Tregs came out at 1.67±0.09 fold. The sequence also returned an allograft survival in assay [4] of 11 days.
